Test results from ChEMBL document CHEMBL1201862, “PubChem BioAssay data set” (2004).
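96-well plates; 48 h exposure; 5 concentrations. Endpoints by linear interpolation between flanking doses. Not reached: highest tested concentration assigned. The concentration for 50% growth inhibition is given as GI50.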 Calls of active or inactive are those of the source. Cut-off read from the data, not from the text of the source: active = GI50 up to about 1.1 µM and inactive = higher.

Key:
Assay in all cases: growth of human tumour cells (NCI), 48 h
A498 = system: A498
ACHN = system: ACHN
BT-549 = system: BT-549
CCRF-CEM = system: CCRF-CEM
COLO 205 = system: COLO 205
DU-145 = system: DU-145
HCC 2998 = system: HCC 2998
HCT-116 = system: HCT-116
K562 = system: K562
MDA-MB-435 = system: MDA-MB-435
MOLT-4 = system: MOLT-4
Malme-3M = system: Malme-3M
NCI/ADR-RES = system: NCI/ADR-RES
OVCAR-3 = system: OVCAR-3
OVCAR-8 = system: OVCAR-8
RPMI-8226 = system: RPMI-8226
RXF 393 = system: RXF 393
SF-268 = system: SF-268
SNB-75 = system: SNB-75

Measured: GI50

CC(C)c1ccc2c(c1)/C(=C1/Nc3ccccc3/C1=N/O)C(=O)N2
inactive: A498 2.78 µM | ACHN 3.33 µM | BT-549 7.13 µM | CCRF-CEM 3.14 µM | COLO 205 5.22 µM | DU-145 6.07 µM | HCC 2998 4.75 µM | HCT-116 3.76 µM | K562 4.07 µM | MDA-MB-435 7.38 µM | MOLT-4 3.3 µM | Malme-3M 3.72 µM | NCI/ADR-RES 4.38 µM | OVCAR-3 7.46 µM | OVCAR-8 2.79 µM | RPMI-8226 4.17 µM | RXF 393 2.07 µM | SF-268 7 µM | SNB-75 12.7 µM

CCCCCC(=O)Nc1[nH]nnc1C(N)=O
inactive: A498 > 100 µM | ACHN > 100 µM | BT-549 > 100 µM | CCRF-CEM > 100 µM | COLO 205 > 100 µM | DU-145 > 100 µM | HCC 2998 > 100 µM | HCT-116 > 100 µM | K562 > 100 µM | MDA-MB-435 > 100 µM | MOLT-4 > 100 µM | Malme-3M > 100 µM | NCI/ADR-RES > 100 µM | OVCAR-3 > 100 µM | OVCAR-8 > 100 µM | RPMI-8226 > 100 µM | RXF 393 > 100 µM | SF-268 > 100 µM | SNB-75 > 100 µM

COc1cc(OC)cc(-c2nc(O)c3ccccc3n2)c1
inactive: A498 31.1 µM | ACHN > 100 µM | BT-549 > 100 µM | CCRF-CEM > 100 µM | COLO 205 > 100 µM | DU-145 > 100 µM | HCC 2998 > 100 µM | HCT-116 42.5 µM | K562 > 100 µM | MDA-MB-435 > 100 µM | MOLT-4 > 100 µM | Malme-3M > 100 µM | NCI/ADR-RES 40.7 µM | OVCAR-3 > 100 µM | OVCAR-8 24.6 µM | RPMI-8226 > 100 µM | RXF 393 29.8 µM | SF-268 63.2 µM | SNB-75 29.6 µM

CC1CNC(c2ccc(COc3ccc(C4=NC(C)CN4)cc3)cc2)=N1 (stereo not given)
inactive: A498 > 100 µM | ACHN > 100 µM | BT-549 > 100 µM | CCRF-CEM 59.6 µM | COLO 205 > 100 µM | DU-145 > 100 µM | HCC 2998 46.5 µM | HCT-116 39.1 µM | K562 15.5 µM | MDA-MB-435 61 µM | MOLT-4 > 100 µM | Malme-3M 27.6 µM | NCI/ADR-RES > 100 µM | OVCAR-3 34.9 µM | OVCAR-8 72.6 µM | RPMI-8226 29.9 µM | RXF 393 58.6 µM | SF-268 54.3 µM | SNB-75 13.2 µM

c1cc(CSSCc2ccncc2)ccn1
inactive: A498 42.7 µM | ACHN 42.2 µM | BT-549 51.6 µM | CCRF-CEM 1.24 µM | COLO 205 8.11 µM | DU-145 28.9 µM | HCC 2998 22.9 µM | HCT-116 14.1 µM | K562 14.8 µM | MDA-MB-435 20.6 µM | MOLT-4 3.21 µM | Malme-3M 24.9 µM | NCI/ADR-RES 30.5 µM | OVCAR-3 33.6 µM | OVCAR-8 21.7 µM | RPMI-8226 9.18 µM | RXF 393 23.6 µM | SF-268 28.4 µM | SNB-75 57.1 µM
